Legend:
[1] = system: HCC1428 cells; assay: Clonogenic assay in HCC1428 cells (endogenous E2-E10 ESR1-CCDC170 fusion); format: cell-based, human; conditions: for cell viability, inhibitor in combination with tamoxifen or fulvestrant compared to tamoxifen or fulvestrant alone / therapeutic effect when combined with fulvestrant, comparison / therapeutic activity in combination with tamoxifen or fulvestrant, comparison between inhibitors: lapatinib 2 µM; for cell viability, inhibitor in combination with tamoxifen or fulvestrant compared to tamoxifen or fulvestrant alone: dasatinib 0.05 µM, BEZ235 8 nM; for cell viability, inhibitor in combination with tamoxifen or fulvestrant compared to tamoxifen or fulvestrant alone / therapeutic activity in combination with tamoxifen or fulvestrant, comparison between inhibitors: AZD8931 1 µM; for therapeutic effect when combined with fulvestrant, comparison: dasatinib 0.05 µM plus fulvestrant; for therapeutic activity in combination with tamoxifen or fulvestrant, comparison between inhibitors: dasatinib 0.05 µM vs BEZ235 8 nM
[2] = system: ZR-75-1 cells; assay: Clonogenic assay in ZR-75-1 cells (E2-E6 ESR1-CCDC170 fusion); format: cell-based, human; conditions: for cell viability, concomitant inhibitor compared to endocrine treatment alone: lapatinib 2 µM or dasatinib 0.05 µM with tamoxifen or fulvestrant
Description: A) Sensitivity of ZR-75-1 cells to tamoxifen in combination with HER2, SRC, or HER2+SRC inhibitors as measured by clonogenic assays. ZR-75-1 cells were treated with different dosages of 4-OH tamoxifen (µM), or 4-OH tamoxifen plus lapatinib (2 µM), dasatinib (0.05 µM), or lapatinib (2 µM) + dasatinib (0.05 µM). Data were normalized against vehicle treatment alone (as 100%). […] Data were normalized against vehicle treatment alone (as 100%).
Left panel, the representative plate images of clonogenic assays. Right panel, the relative clonogenic viabilities normalized to tamoxifen monotreatment (Means ± SD. of triplicates).
The clonogenic viabilities following the respective treatments were assessed by clonogenic assays.

[3] = system: MDA-MB-415; assay: Clonogenic assay in fusion-negative MDA-MB-415 cells; format: cell-based; conditions: Homo sapiens; MDA-MB-415 (fusion-negative); titrated lapatinib in combination with 0.5 µM tamoxifen, 10 to 13 days; read-out: IC50 (clonogenic viability)
[4] = system: CAMA-1; assay: Clonogenic assay in fusion-negative CAMA-1 cells; format: cell-based; conditions: Homo sapiens; CAMA-1 (fusion-negative); titrated lapatinib in combination with 0.5 µM tamoxifen, 10 to 13 days; read-out: IC50 (clonogenic viability)
[5] = system: HER2; conditions: HCC1428 cells

Row | Compound | cell viability, inhibitor in combination with tamoxifen or fulvestrant compared to tamoxifen or fulvestrant alone [1] | therapeutic effect when combined with fulvestrant, comparison [1] | therapeutic activity in combination with tamoxifen or fulvestrant, comparison between inhibitors [1] | cell viability, concomitant inhibitor compared to endocrine treatment alone [2] | also measured
1 | CNC(=O)CN1CCC(Oc2cc3c(Nc4cccc(Cl)c4F)ncnc3cc2OC)CC1 [AZD8931] | significantly inhibited cell viability | – | – | – | –
2 | Cn1c(=O)n(-c2ccc(C(C)(C)C#N)cc2)c2c3cc(-c4cnc5ccccc5c4)ccc3ncc21 [BEZ235] | significantly inhibited cell viability | – | – | – | –
3 | Cc1nc(Nc2ncc(C(=O)Nc3c(C)cccc3Cl)s2)cc(N2CCN(CCO)CC2)n1 [dasatinib] | significantly inhibited cell viability | comparable therapeutic effects | better therapeutic activities than BEZ235 or AZD8931 | did not show any significant therapeutic benefit | activity in the presence of tamoxifen, comparison ([1]; dasatinib 0.05 µM vs lapatinib 2 µM plus 4-OH tamoxifen): better activity than lapatinib
4 | CS(=O)(=O)CCNCc1ccc(-c2ccc3ncnc(Nc4ccc(OCc5cccc(F)c5)c(Cl)c4)c3c2)o1 [lapatinib] | significantly inhibited cell viability | comparable therapeutic effects | better therapeutic activities than BEZ235 or AZD8931 | further decreased cell viability | IC50 ([1]; Homo sapiens, HCC1428 (E2-E10 variant), titrated lapatinib in combination with 0.5 µM tamoxifen, 10 to 13 days, normalized to tamoxifen monotreatment, read-out: IC50 (clonogenic viability)): 150 nM; IC50 ([2]; Homo sapiens, ZR-75-1 (E2-E6 variant), titrated lapatinib in combination with 0.5 µM tamoxifen, 10 to 13 days, normalized to tamoxifen monotreatment, read-out: IC50 (clonogenic viability)): 600 nM; IC50 [3]: 4000 nM; IC50 [4]: 6500 nM
5 | CC/C(=C(\c1ccccc1)c1ccc(OCCN(C)C)cc1)c1ccccc1 [tamoxifen] | – | – | – | – | cell growth (clonogenic assay), endocrine agent alone ([1]; Tam 0.5 µM or Ful 0.1 µM, 72 hours): reduced cell growth efficiently; response of cells to endocrine treatment (clonogenic assay) ([2]; increasing doses of tamoxifen or fulvestrant): responded; HER2 protein level (Western blot) [5]: upregulated

— US20230175069A1, “COMPOSITIONS AND METHODS FOR DETECTING GENE FUSIONS OF ESR1 AND CCDC170 FOR DETERMINING INCREASED RESISTANCE TO ENDOCRINE THERAPY AND FOR CANCER TREATMENT” (UNIVERSITY OF PITTSBURGH-OF THE COMMONWEAL TH SYSTEM OF …, priority 2020, published 2023)
